The results in this text go back to US8791132B2, “Compounds and methods for treatment of hypertension” (Medivation Technologies, Inc., priority 2011, dated 2014).

One may read the inhibition as the change of the read-out against control, counted positive when it falls. What is called pKi is −log10 of the Ki, conventionally taken in molar units.

Each structure is given as a SMILES string. pKi: −log10 of the molar value. Read-outs that look alike come from different tables or passages of the source.

Assay [1] has as its target T1, human recombinant adrenergic α2B receptor (Homo sapiens, UniProt P18089).
T1 construct: expressed in transfected cells; host or cells: CHO-K1
T1 sequence (P18089 1-450): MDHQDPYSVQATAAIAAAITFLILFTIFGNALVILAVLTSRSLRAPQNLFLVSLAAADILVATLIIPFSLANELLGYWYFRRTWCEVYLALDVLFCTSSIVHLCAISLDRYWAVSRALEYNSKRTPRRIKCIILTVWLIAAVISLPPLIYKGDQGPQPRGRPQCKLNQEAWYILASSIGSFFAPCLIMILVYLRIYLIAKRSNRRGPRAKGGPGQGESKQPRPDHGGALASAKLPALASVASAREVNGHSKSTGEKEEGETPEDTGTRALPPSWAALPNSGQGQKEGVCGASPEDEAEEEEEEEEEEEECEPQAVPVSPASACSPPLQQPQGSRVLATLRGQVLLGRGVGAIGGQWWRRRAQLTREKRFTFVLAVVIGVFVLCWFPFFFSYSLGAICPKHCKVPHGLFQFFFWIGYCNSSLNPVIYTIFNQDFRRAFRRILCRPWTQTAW
Nature of the assay: Radioligand binding, adrenergic α2B ([3H]Rauwolscine). As to conditions: for Percentage inhibition of ligand binding, Adrenergic α2B / Percentage inhibition of ligand binding, Adrenergic α2B (0.03 μM): 0.03 µM. The method, boiled down:
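Readout: percent inhibition of specific [3H]Rauwolscine binding, measured by filtration and counting. Conditions: CHO-K1 cell-expressed receptor, 2.5 nM radioligand, 60 min, 25° C, Tris-HCl pH 7.4 buffer with MgCl2, EDTA, BSA. Non-specific binding: 10 μM Prazosin.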

Assay [2] deals with T2, rat adrenergic α1B receptor (Rattus norvegicus, UniProt P15823).
T2 construct: rat adrenergic α1B receptor obtained from Wistar Rat liver; from tissue; host or cells: Wistar rat liver
T2 sequence (P15823 1-515): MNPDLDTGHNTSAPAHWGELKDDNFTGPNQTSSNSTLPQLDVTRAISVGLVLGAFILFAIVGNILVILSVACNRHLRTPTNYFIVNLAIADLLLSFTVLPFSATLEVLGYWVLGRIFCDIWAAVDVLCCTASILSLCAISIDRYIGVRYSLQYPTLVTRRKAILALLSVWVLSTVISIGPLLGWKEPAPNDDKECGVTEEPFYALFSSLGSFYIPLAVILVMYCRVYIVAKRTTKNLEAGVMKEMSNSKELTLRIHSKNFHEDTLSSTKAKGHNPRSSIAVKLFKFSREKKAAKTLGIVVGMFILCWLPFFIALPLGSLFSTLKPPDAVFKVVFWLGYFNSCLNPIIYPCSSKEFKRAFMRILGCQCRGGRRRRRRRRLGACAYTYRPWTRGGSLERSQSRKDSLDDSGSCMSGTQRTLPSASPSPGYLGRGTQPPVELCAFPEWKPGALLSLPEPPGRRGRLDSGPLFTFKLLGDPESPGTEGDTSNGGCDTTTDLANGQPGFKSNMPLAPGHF
Nature of the assay: Radioligand binding, adrenergic α1B ([3H]Prazosin). Particulars: for Percentage inhibition of ligand binding, Adrenergic α1B / Percentage inhibition of ligand binding, Adrenergic α1B (0.1 μM): 0.1 µM; for inhibition at 0.03 µM: read-out: Percentage inhibition of ligand binding, Adrenergic α1B (0.03 μM), compound at 0.03 μM. The method, then: To evaluate in radioligand binding assays the activity of compounds of the invention, rat adrenergic α1B receptor obtained from Wistar Rat liver (Garcia-S'ainz, J. et al, Biochem. Biophys. Res. Commun. 186:760, 1992; Michel, A. et al, Br. J. Pharmacol. 98:883, 1989) in a modified Tris-HCl buffer (50 mM Tris-HCl buffer, pH 7.4, 0.5 mM EDTA) was used. Compounds of the invention were incubated with 0.25 nM [^3H]Prazosin for 60 min at 25° C. Non-specific binding was estimated in the presence of 10 μM phentolamine. Receptor proteins were filtered and washed, the filters were then counted to determine [^3H]Prazosin specifically bound. […] Compounds of the invention were tested in this biochemical assay and percent inhibition of specific binding was determined. Biochemical assay results are presented as the percent inhibition of specific binding in Table B1.

The target of assay [3] is T3, human recombinant adrenergic α2A receptor (Homo sapiens, UniProt P08913).
T3 construct: expressed in transfected cells; host or cells: insect Sf9 cells
T3 sequence (P08913 1-465): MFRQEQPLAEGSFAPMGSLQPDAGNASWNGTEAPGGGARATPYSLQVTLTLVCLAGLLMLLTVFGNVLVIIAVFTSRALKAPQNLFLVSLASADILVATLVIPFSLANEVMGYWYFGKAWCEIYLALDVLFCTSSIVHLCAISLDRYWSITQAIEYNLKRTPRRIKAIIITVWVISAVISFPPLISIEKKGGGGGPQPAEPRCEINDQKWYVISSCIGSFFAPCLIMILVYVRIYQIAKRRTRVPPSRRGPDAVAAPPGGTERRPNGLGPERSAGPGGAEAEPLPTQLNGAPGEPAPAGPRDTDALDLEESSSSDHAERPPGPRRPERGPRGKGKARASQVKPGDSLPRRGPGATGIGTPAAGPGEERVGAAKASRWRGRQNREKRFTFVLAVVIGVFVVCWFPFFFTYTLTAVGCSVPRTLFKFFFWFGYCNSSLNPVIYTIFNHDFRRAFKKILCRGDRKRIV
Nature of the assay: Radioligand binding, adrenergic α2A ([3H]MK-912). Particulars: for Percentage inhibition of ligand binding, Adrenergic α2A / Percentage inhibition of ligand binding, Adrenergic α2A (0.1 μM): 0.1 µM; for inhibition at 0.03 µM: read-out: Percentage inhibition of ligand binding, Adrenergic α2A (0.03 μM), compound at 0.03 μM. The method in brief: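 Sf9-expressed receptor was incubated with compound for 60 min at 25 °C in modified Tris-HCl buffer, pH 7.4. Nonspecific binding was taken as that remaining with 10 μM WB-4101.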

The mark [4] stands for this setting: read-out: Percentage inhibition of ligand binding, Adrenergic α2B (0.03 μM), compound at 0.03 μM, [3H]Rauwolscine, repeat datapoints each shown.
[5] abbreviates: read-out: Percentage inhibition of ligand binding, Adrenergic α1B (0.1 μM), compound at 0.1 μM, [3H]Prazosin, repeat datapoints each shown.
Where [6] appears, read: read-out: Percentage inhibition of ligand binding, Adrenergic α2A (0.1 μM), compound at 0.1 μM, [3H]MK-912, repeat datapoints each shown.
[7] abbreviates: compound at 0.03 μM, [3H]Rauwolscine, repeat datapoints each shown.
Setting [8] is: compound at 0.1 μM, [3H]Prazosin, repeat datapoints each shown.
Where [9] appears, read: [3H]Prazosin, repeat datapoints each shown.
The mark [10] stands for this setting: compound at 0.1 μM, [3H]MK-912, repeat datapoints each shown.
The mark [11] stands for this setting: [3H]MK-912, repeat datapoints each shown.

As for `CN1CCc2c(c3cc(CO)ccc3n2CC(C)(F)c2cccnc2)C1` (stereo not shown) [II-213, [5-(2-fluoro-2-pyridin-3-yl-propyl)-2-methyl-2,3,4,5-tetrahydro-1H-pyrido[4,3-b]indol-8-yl]-methanol], the inhibition at 0.03 µM in assay [1] (setting [4]) worked out at 11%. The inhibition at 0.1 µM was -3% in assay [2] (setting [5]) and 12% in assay [3] (setting [6]).

For the molecule `OC(Cn1c2c(c3cccnc31)CN1CCCC1C2)c1ccncc1` (single isomer, unassigned) [37d], the “Percentage inhibition of ligand binding, Adrenergic α2B” value in assay [1] (compound at 0.03 μM, [3H]Rauwolscine, repeat assays, each datapoint shown) is −3%. Further, the “Percentage inhibition of ligand binding, Adrenergic α1B” value in assay [2] (compound at 0.1 μM, [3H]Prazosin, repeat assays, each datapoint shown) is on record as 2%. For the same molecule, the “Percentage inhibition of ligand binding, Adrenergic α2A” value in assay [3] (compound at 0.1 μM, [3H]MK-912, repeat assays, each datapoint shown) is given as 8%.

For the molecule `Cc1ccc2c(c1)c1c(n2CC(C)(O)c2ccc(F)cc2)CCN2CCCC12` (single isomer, unassigned) [II-121a, 2-(4-fluoro-phenyl)-1-(9-methyl-1,2,3,4,5,10c-hexahydro-3a,6-diaza-cyclopenta[c]fluoren-6-yl)-propan-2-ol], the “Percentage inhibition of ligand binding, Adrenergic α2B (0.03 μM)” value in assay [1] (setting [7]) is 104%. Also, the values for the inhibition at 0.03 µM in assay [1] (setting [4]), in assay [2] (setting [9]) and in assay [3] (setting [11]) were 103%, 90% and 65%, respectively. In assay [2] (setting [8]), the “Percentage inhibition of ligand binding, Adrenergic α1B (0.1 μM)” value was found to be 98%. In addition, the inhibition at 0.1 µM in assay [2] (setting [5]) amounted to 97%; in assay [3] (setting [6]) it was 91%. Also, the negative logarithm of the Ki (pKi) in assay [3] is 8.34. Also, the “Percentage inhibition of ligand binding, Adrenergic α2A (0.1 μM)” value in assay [3] (setting [10]) is given as 92%.

Take `Cc1ccc2c(c1)c1c(n2CC(C)(O)c2ccc(C)nc2)CCN2CCCC12` (single isomer, unassigned) [II-128b, 1-(9-methyl-1,2,3,4,5,10c-hexahydro-3a,6-diaza-cyclopenta[c]fluoren-6-yl)-2-(6-methyl-pyridin-3-yl)-propan-2-ol]: in assay [1] (setting [7]), the “Percentage inhibition of ligand binding, Adrenergic α2B (0.03 μM)” value came to 106%. Besides, the pKi in assay [1] (read-out: Ki α2B) was 9.31; in assay [3], 7.88. For the same molecule, the inhibition at 0.03 µM came out at 102% in assay [1] (setting [4]), 56% in assay [2] (setting [9]) and 50% in assay [3] (setting [11]). The “Percentage inhibition of ligand binding, Adrenergic α1B (0.1 μM)” value in assay [2] (setting [8]) is on record as 86%. Moreover, the inhibition at 0.1 µM was 84% in assay [2] (setting [5]) and 74% in assay [3] (setting [6]). The “Percentage inhibition of ligand binding, Adrenergic α2A (0.1 μM)” value in assay [3] (setting [10]) is 77%.

For `Cc1ccc2c(c1Cl)c1c(n2CC(C)(O)c2cccnc2)CCN(C)C1` (single isomer, unassigned) [II-124a, 1-(9-chloro-2,8-dimethyl-3,4-dihydro-1H-pyrido[4,3-b]indol-5(2H)-yl)-2-(pyridin-3-yl)propan-2-ol], the inhibition at 0.03 µM in assay [1] (setting [4]) was 26%. In addition, the “Percentage inhibition of ligand binding, Adrenergic α1B (0.1 μM)” value in assay [2] (setting [8]) is reported as −2%. Further, the “Percentage inhibition of ligand binding, Adrenergic α2A (0.1 μM)” value in assay [3] (setting [10]) came to 23%.

Regarding `Cc1ccc2c(c1)c1c(n2CC(N)c2ccc(F)cc2)CCN(C)C1` (single isomer, unassigned) [II-11a, 2-(2,8-dimethyl-3,4-dihydro-1H-pyrido[4,3-b]indol-5(2H)-yl)-1-(4-fluorophenyl)ethanamine], the “Percentage inhibition of ligand binding, Adrenergic α2B” value in assay [1] (0.03 μM compound) came to 53%. For the same molecule, the “Percentage inhibition of ligand binding, Adrenergic α1B” value in assay [2] (0.1 μM compound) was 9%. Moreover, the “Percentage inhibition of ligand binding, Adrenergic α2A” value in assay [3] (0.1 μM compound) amounted to 22%.

In the case of `Cc1ccc2c(c1)c1c(n2CC(O)c2ccnc(C(=O)O)c2)CCN2CCCC12` (stereo not shown) [compound 168], in assay [1] (setting [4]), the inhibition at 0.03 µM turned out to be 32%. Further, the inhibition at 0.1 µM in assay [2] (setting [5]) turned out to be 23%; in assay [3] (setting [6]), 16%.

Turning to `Cc1ccc2c(c1)c1c(n2CC(C)(OC(=O)C(C)(C)C)c2cccnc2)CCN(C)C1` (stereo not shown) [II-16a, 2,2-dimethyl-propionic acid 2-(2,8-dimethyl-1,2,3,4-tetrahydro-pyrido[4,3-b]indol-5-yl)-1-methyl-1-pyridin-3-yl-ethyl ester], the inhibition at 0.03 µM in assay [1] (0.03 μM compound, read-out: Percentage inhibition of ligand binding, Adrenergic α2B) worked out at 39%. Also, the inhibition at 0.1 µM worked out at 20% in assay [2] (0.1 μM compound, read-out: Percentage inhibition of ligand binding, Adrenergic α1B) and 11% in assay [3] (0.1 μM compound, read-out: Percentage inhibition of ligand binding, Adrenergic α2A).
